Common to all, as to format: cell-based
Assay [1] concerns the target T1, M2 (Homo sapiens, UniProt P08172).
T1 sequence (P08172 1-466): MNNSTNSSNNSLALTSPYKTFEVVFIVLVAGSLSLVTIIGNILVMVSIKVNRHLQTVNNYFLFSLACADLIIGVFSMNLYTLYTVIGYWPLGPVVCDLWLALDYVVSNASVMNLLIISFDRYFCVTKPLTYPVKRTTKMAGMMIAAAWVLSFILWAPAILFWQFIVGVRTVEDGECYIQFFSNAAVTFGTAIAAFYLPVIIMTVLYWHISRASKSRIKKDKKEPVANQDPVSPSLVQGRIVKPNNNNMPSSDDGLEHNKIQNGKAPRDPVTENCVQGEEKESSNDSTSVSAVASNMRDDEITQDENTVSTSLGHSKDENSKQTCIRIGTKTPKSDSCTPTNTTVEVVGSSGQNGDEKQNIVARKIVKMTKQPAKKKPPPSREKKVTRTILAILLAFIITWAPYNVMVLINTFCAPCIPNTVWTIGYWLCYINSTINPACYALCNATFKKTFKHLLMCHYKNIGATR
Nature of the assay: In vitro functional assay of muscarinic acetylcholine receptor activity, M2. As to conditions: antagonist activity; M2 method not separately described. How it is done: [The procedure below names another target; the source lists this target under the same test.] (§1) CHO-K1 cells stably expressing human M1 receptor with Aequorin (Perkin Elmer) were grown in F12 media, 10% FBS with 0.4 mg/mL geneticin and […]. Cells were grown to confluence and frozen down to be assayed at a later date. On the day of the experiment cells were thawed in a 37° C. water bath, resuspended in DMEM/HAM's F12 with HEPES (Invitrogen)+0.1% protease-free BSA (assay buffer), and spun down to remove freezing media. After centrifugation, supernatant was removed and 12 mL of assay buffer was added. Coelenterazine h (Promega) was added to the cells at a final concentration of 5 uM and incubated for 4 hours at room temperature in the dark. Compound master plate-96 deep well (Corning) were formatted in a 8-point DRC in assay buffer with 0.2% DMSO at a starting concentration of 60 uM (2×). After 4 hours of incubation, cells were plated at a concentration of 5×10^5 cells/well in 96 well white-walled, tissue culture-treated, clear-bottom plates (VWR). Compounds were added to the daughter plate, and cells plus compound were incubated at room temperature for 30 minutes in the dark.
(§2) Calcium flux was measured using the FlexStation 3 (Molecular Devices). To measure the antagonist dose-response, the EC80 of Acetylcholine was injected to the daughter plate using the automated compound transfer function of the Flex Station, and the increase in luminescence was measured over time. Antagonist activity was analyzed as a concentration dependent decrease in the EC80 acetylcholine response. Dose response curves were generated using Prism (GraphPad Software). The IC50 of the compounds was calculated from the dose response curve.

Assay [2] deals with M3 (Homo sapiens, UniProt P20309). Kind of assay: In vitro functional assay of muscarinic acetylcholine receptor activity, M3. As to conditions: antagonist activity; M3 method not separately described. How it is done: [The procedure below names another target; the source lists this target under the same test.] as §1, §2
Chain of M3 (P20309 whole entry): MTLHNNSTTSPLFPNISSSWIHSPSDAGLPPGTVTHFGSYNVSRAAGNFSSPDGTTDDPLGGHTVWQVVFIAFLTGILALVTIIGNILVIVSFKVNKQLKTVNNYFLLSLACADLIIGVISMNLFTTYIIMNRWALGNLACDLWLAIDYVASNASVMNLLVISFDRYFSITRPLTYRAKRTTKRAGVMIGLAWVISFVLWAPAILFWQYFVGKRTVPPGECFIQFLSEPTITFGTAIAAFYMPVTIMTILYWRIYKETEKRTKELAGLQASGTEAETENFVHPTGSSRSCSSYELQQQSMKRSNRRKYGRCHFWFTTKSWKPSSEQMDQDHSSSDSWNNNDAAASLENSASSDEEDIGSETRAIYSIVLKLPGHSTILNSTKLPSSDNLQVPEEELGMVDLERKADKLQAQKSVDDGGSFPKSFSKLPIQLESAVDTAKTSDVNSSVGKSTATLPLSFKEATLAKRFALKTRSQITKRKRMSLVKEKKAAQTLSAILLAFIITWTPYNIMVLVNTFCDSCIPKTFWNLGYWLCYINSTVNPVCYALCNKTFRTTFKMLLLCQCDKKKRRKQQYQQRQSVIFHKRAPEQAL
Assay [3] deals with T2, human M1 receptor (Homo sapiens, UniProt P11229).
T2 construct: host or cells: CHO-K1
T2 sequence (P11229 1-460): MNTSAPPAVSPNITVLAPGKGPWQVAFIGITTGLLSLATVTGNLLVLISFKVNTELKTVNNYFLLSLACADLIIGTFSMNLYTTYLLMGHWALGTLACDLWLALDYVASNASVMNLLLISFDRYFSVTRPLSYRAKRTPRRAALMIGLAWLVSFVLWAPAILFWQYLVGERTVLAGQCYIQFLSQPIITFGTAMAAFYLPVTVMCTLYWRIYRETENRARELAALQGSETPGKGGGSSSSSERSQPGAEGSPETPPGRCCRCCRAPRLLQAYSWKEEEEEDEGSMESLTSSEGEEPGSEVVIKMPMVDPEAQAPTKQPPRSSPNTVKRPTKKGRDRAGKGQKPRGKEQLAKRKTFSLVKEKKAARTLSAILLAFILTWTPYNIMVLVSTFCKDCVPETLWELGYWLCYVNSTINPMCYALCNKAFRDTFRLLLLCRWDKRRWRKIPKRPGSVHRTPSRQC
Kind of assay: In vitro functional assay of muscarinic acetylcholine receptor activity (aequorin calcium flux, antagonist mode vs EC80 acetylcholine), M1. As to conditions: CHO-K1 cells stably expressing human M1 receptor with Aequorin; decrease in EC80 acetylcholine response. How it is done: as §1, §2

Structures are written as SMILES. Bounds are passed on as bounds.

With `O=C1C(CCCc2cccc3ncsc23)C[C@H]2CN(c3ccncc3F)CCN12` (mixture of isomers) [Example 9, (8aS)-7-(3-(benzo[d]thiazol-7-yl)propyl)-2-(3-fluoropyridin-4-yl)hexahydropyrrolo[1,2-a]pyrazin-6(2H)-one], the IC50 was 1000 to 10000 nM in assay [1], greater than 10000 nM in assay [2] and 100 to 1000 nM in assay [3].
In the same order, the values of `O=C1C(CCCc2cccc3ncnn23)C[C@H]2CN(c3ccc(F)cn3)CCN12` (mixture of isomers) [Example 41, (7S,8aS)-7-(3-([1,2,4]triazolo[1,5-a]pyridin-5-yl)propyl)-2-(5-fluoropyridin-2-yl)hexahydropyrrolo[1,2-a]pyrazin-6(2H)-one] are 1000 to 10000 nM, 1000 to 10000 nM and less than 100 nM.
The corresponding values for `Cc1cc(N2CCN3C(=O)C(CCCc4cccc5ncnn45)C[C@H]3C2)ncc1F` (mixture of isomers) [Example 42, (7S,8aS)-7-(3-([1,2,4]triazolo[1,5-a]pyridin-5-yl)propyl)-2-(5-fluoro-4-methylpyridin-2-yl)hexahydropyrrolo[1,2-a]pyrazin-6(2H)-one] are 1000 to 10000 nM, greater than 10000 nM and greater than 10000 nM.
In the same order, the values of `Cc1ncc(N2CCN3C(=O)C(CCCc4cccc5ncnn45)C[C@H]3C2)cc1F` (mixture of isomers) [Example 43, (7S,8aS)-7-(3-([1,2,4]triazolo[1,5-a]pyridin-5-yl)propyl)-2-(5-fluoro-6-methylpyridin-3-yl)hexahydropyrrolo[1,2-a]pyrazin-6(2H)-one] are 1000 to 10000 nM, 1000 to 10000 nM and 1000 to 10000 nM.
As for `O=C1C(CCCc2cccc3ncnn23)C[C@H]2CN(c3cncc(Cl)c3)CCN12` (mixture of isomers) [Example 44, (8aS)-7-(3-([1,2,4]triazolo[1,5-a]pyridin-5-yl)propyl)-2-(5-chloropyridin-3-yl)hexahydropyrrolo[1,2-a]pyrazin-6(2H)-one], the IC50 in assay [1] was 1000 to 10000 nM; in assay [2] it was greater than 10000 nM; in assay [3], 1000 to 10000 nM.
Take `O=C1C(CCCc2cccc3ncnn23)C[C@H]2CN(c3ccc(C(F)F)cn3)CCN12` (mixture of isomers) [Example 46, (8aS)-7-(3-([1,2,4]triazolo[1,5-a]pyridin-5-yl)propyl)-2-(5-(difluoromethyl)pyridin-2-yl)hexahydropyrrolo[1,2-a]pyrazin-6(2H)-one]: the IC50 was 1000 to 10000 nM in assay [1], 1000 to 10000 nM in assay [2] and less than 100 nM in assay [3].
With `COc1ccc(N2CCN3C(=O)C(CCCc4cccn5ncnc45)C[C@H]3C2)nc1` (mixture of isomers) [Example 72, (7S,8aS)-7-(3-([1,2,4]triazolo[1,5-a]pyridin-8-yl)propyl)-2-(5-methoxypyridin-2-yl)hexahydropyrrolo[1,2-a]pyrazin-6(2H)-one], the IC50 in assay [1] was 1000 to 10000 nM; in assay [2], 1000 to 10000 nM; in assay [3], less than 100 nM.
With `O=C1C(CCCc2cccc3ncsc23)CC2CN(c3ccncc3F)CCN12` (racemic) [Example 6, 7-(3-(benzo[d]thiazol-7-yl)propyl)-2-(3-fluoropyridin-4-yl)hexahydropyrrolo[1,2-a]pyrazin-6(2H)-one], the results for the IC50 in assay [1], in assay [2] and in assay [3] were 1000 to 10000 nM, greater than 10000 nM and 100 to 1000 nM, respectively.
Consider `O=C1C(CCCc2cccc3ncnn23)C[C@H]2CN(c3ccc(F)cn3)CCN12` (single isomer, unassigned) [Example 50], for which the IC50 in assay [1] was greater than 10000 nM; in assay [2] it was greater than 10000 nM; in assay [3], 100 to 1000 nM.
For the molecule `O=C1[C@H](CCCc2cccc3ncsc23)C[C@H]2CN(c3ccncc3F)CCN12` [Example 1, (7R,8aS)-7-(3-(benzo[d]thiazol-7-yl)propyl)-2-(3-fluoropyridin-4-yl)hexahydropyrrolo[1,2-a]pyrazin-6(2H)-one], the IC50 in assay [1], in assay [2] and in assay [3] was greater than 10000 nM in each case.
Consider `O=C1[C@@H](CCCc2cccc3ncsc23)C[C@H]2CN(c3ccncc3F)CCN12` [Example 2, (7S,8a5)-7-(3-(benzo [d]thiazol-7-yl)propyl)-2-(3-fluoropyridin-4-yl)hexahydropyrrolo[1,2-a]pyrazin-6(2H)-one], for which the half-inhibitory concentration (IC50) in assay [1] is 1000 to 10000 nM; in assay [2], 1000 to 10000 nM; in assay [3], less than 100 nM.
Consider `O=C1[C@@H](CCCc2cccc3nccn23)C[C@H]2CN(c3ccncc3F)CCN12` [Example 3, (7S,8aS)-2-(3-fluoropyridin-4-yl)-7-(3-(imidazo[1,2-a]pyridin-5-yl)propyl)hexahydropyrrolo[1,2-a]pyrazin-6(2H)-one], for which the IC50 in assay [1] was greater than 10000 nM; in assay [2], 1000 to 10000 nM; in assay [3], 100 to 1000 nM.
In the same order, the values of `N#Cc1ccc(N2CCN3C(=O)[C@@H](CCCc4cccc5ncnn45)C[C@H]3C2)nc1` [Example 4, 6-((7S,8aS)-7-(3-([1,2,4]triazolo [1,5-a]pyridin-5-yl)propyl)-6-oxohexahydropyrrolo [1,2-a]pyrazin-2(1H)-yl)nicotinonitrile] are 100 to 1000 nM, 100 to 1000 nM and less than 100 nM.
In the same order, the values of `N#Cc1ccc(N2CCN3C(=O)[C@@H](CNCc4cccc5ncnn45)C[C@H]3C2)nc1` [Example 5, 6-((7R,8aS)-7-((([1,2,4]triazolo[1,5-a]pyridin-5-ylmethyl)amino)methyl)-6-oxohexahydropyrrolo[1,2-a]pyrazin-2(1H)-yl)nicotinonitrile] are 1000 to 10000 nM, greater than 10000 nM and 100 to 1000 nM.
Consider `O=C1[C@@H](CCCc2cccc3ncsc23)C[C@@H]2CN(c3ccncc3F)CCN12` [Example 7, (7S,8aR)-7-(3-(benzo[d]thiazol-7-yl)propyl)-2-(3-fluoropyridin-4-yl)hexahydropyrrolo[1,2-a]pyrazin-6(2H)-one], for which the half-inhibitory concentration (IC50) in assay [1] is 1000 to 10000 nM; in assay [2], greater than 10000 nM; in assay [3], 1000 to 10000 nM.
In the case of `O=C1[C@H](CCCc2cccc3ncsc23)C[C@@H]2CN(c3ccncc3F)CCN12` [Example 8, (7R,8aR)-7-(3-(benzo[d]thiazol-7-yl)propyl)-2-(3-fluoropyridin-4-yl)hexahydropyrrolo[1,2-a]pyrazin-6(2H)-one], the IC50 in assay [1], in assay [2] and in assay [3] was greater than 10000 nM in each case.
With `N#Cc1ccc(N2CCN3C(=O)[C@@H](CCCc4cccc5ncsc45)C[C@H]3C2)nc1` [Example 10, 6-((7S,8aS)-7-(3-(benzo[d]thiazol-7-yl)propyl)-6-oxohexahydropyrrolo[1,2-a]pyrazin-2(1H)-yl)nicotinonitrile], the IC50 in assay [1] was 100 to 1000 nM; in assay [2], 1000 to 10000 nM; in assay [3], less than 100 nM.
The corresponding values for `N#Cc1cc(N2CCN3C(=O)[C@@H](CCCc4cccc5ncsc45)C[C@H]3C2)ccn1` [Example 11, 4-((7S,8aS)-7-(3-(benzo[d]thiazol-7-yl)propyl)-6-oxohexahydropyrrolo[1,2-a]pyrazin-2(1H)-yl)picolinonitrile] are 100 to 1000 nM, 100 to 1000 nM and less than 100 nM.
In the same order, the values of `O=C1[C@@H](CCCc2cccc3ncsc23)C[C@H]2CN(c3ccnc(Cl)c3)CCN12` [Example 12] are 1000 to 10000 nM, 1000 to 10000 nM and 100 to 1000 nM.

As usually defined, the IC50 is the midpoint of a concentration-inhibition curve.

Source of the values: US12054487B2, “Muscarinic acetylcholine M1 receptor antagonists” (Contineum Therapeutics, Inc., priority 2018, dated 2024).
